According to ChEMBL document CHEMBL3045965, “Design, synthesis, and evaluation of fluorescent cell-penetrating peptidic antagonists of Grb2-SH2 for targeting MCF-7 breast cancer cells” (Med Chem Res, 2013):
Square brackets hold non-standard residues; d marks the D form. Peptide text beside a SMILES is read from it. * marks the point of attachment. Fmoc = O=C(OCC1c2ccccc2-c2ccccc21)*; Aib = CC(C)(N)C(=O)O

Tests used:
MCF7 [1] = assay: Cytotoxicity against Homo sapiens (human) MCF7 cells assessed as cell viability after 48 hr by MTT assay; format: functional, cell-based; conditions: MCF7, 48 h
MCF7 [2] = assay: Cytotoxicity against Homo sapiens (human) MCF7 cells assessed as cell viability at 100 uM after 48 hr by MTT assay relative to control; format: functional; conditions: MCF7, 48 h, read-out: Activity
MCF7 [3] = assay: Cytotoxicity against Homo sapiens (human) MCF7 cells assessed as cell viability at 75 uM after 48 hr by MTT assay relative to control; format: functional; conditions: MCF7, 48 h, read-out: Activity
MCF7 [4] = assay: Cytotoxicity against Homo sapiens (human) MCF7 cells assessed as cell viability at 50 uM after 48 hr by MTT assay relative to control; format: functional; conditions: MCF7, 48 h, read-out: Activity
MCF7 [5] = assay: Cytotoxicity against Homo sapiens (human) MCF7 cells assessed as cell viability at 25 uM after 48 hr by MTT assay relative to control; format: functional; conditions: MCF7, 48 h, read-out: Activity
[6] = biological target: Growth factor receptor-bound protein 2 (Homo sapiens, UniProt P62993); assay: Binding affinity to Grb2-SH2 (unknown origin) by surface plasmon resonance analysis
MCF7 [7] = assay: Cytotoxicity against Homo sapiens (human) MCF7 cells assessed as cell viability after 24 hr by MTT assay; format: functional, cell-based; conditions: MCF7, 24 h

Kd [6] | Compound | IC50 (MCF7 [1]) | viability at 100 µM (MCF7 [2]) | viability at 75 µM (MCF7 [3]) | viability at 50 µM (MCF7 [4]) | viability at 25 µM (MCF7 [5]) | IC50 (MCF7 [7])
– | CC[C@H](C)[C@H](NC(=O)[C@H](C)NC(=O)[C@@H](NC(=O)[C@@H](N)Cc1ccc(O)cc1)[C@@H](C)O)C(=O)N[C@@H](C)C(=O)N[C@@H](Cc1c[nH]c2ccccc12)C(=O)N[C@H](C(=O)N[C@@H](CCCCN)C(=O)N[C@@H](C)C(=O)N[C@@H](Cc1ccccc1)C(=O)N[C@H](C(=O)N[C@@H](CCCNC(=N)N)C(=O)N[C@@H](CCCCN)C(=O)N[C@@H](CC(C)C)C(=O)N[C@@H](CCCNC(=N)N)C(=O)N[C@@H](CCCCN)C(=O)O)[C@@H](C)CC)C(C)C (H-YTAIAWVKAFIRKLRK-OH) | > 100 µM | 94.9% | 96.4% | 97.7% | 101% | –
– | CC[C@H](C)[C@H](NC(=O)[C@H](C)NC(=O)[C@@H](NC(=O)[C@H](Cc1ccc(O)cc1)NC(=O)[C@H](Cc1ccc(O)cc1)NC(=O)[C@H](CCC(=O)O)NC(=O)C(C)(C)NC(=O)[C@@H](N)CC(N)=O)[C@@H](C)O)C(=O)N[C@@H](C)C(=O)N[C@@H](Cc1c[nH]c2ccccc12)C(=O)N[C@H](C(=O)N[C@@H](CCCCN)C(=O)N[C@@H](C)C(=O)N[C@@H](Cc1ccccc1)C(=O)N[C@H](C(=O)N[C@@H](CCCNC(=N)N)C(=O)N[C@@H](CCCCN)C(=O)N[C@@H](CC(C)C)C(=O)N[C@@H](CCCNC(=N)N)C(=O)N[C@@H](CCCCN)C(=O)O)[C@@H](C)CC)C(C)C (H-N[Aib]EYYTAIAWVKAFIRKLRK-OH) | 72.4 µM | 40.6% | 56.9% | 78.9% | 85.3% | –
0.0063 µM | CC(C)(NC(=O)[C@H](Cc1ccc(O)cc1)NC(=O)[C@H](CCC(=O)O)NC(=O)OCC1c2ccccc2-c2ccccc21)C(=O)N[C@@H](CC(N)=O)C(=O)O (Fmoc-EY[Aib]N-OH) | – | 95.1% | 98.2% | 104% | 104% | –
– | N=C(N)NCCC[C@H](NC(=O)[C@H](CCCNC(=N)N)NC(=O)[C@H](CCCCN)NC(=O)[C@H](CCCCN)NC(=O)[C@H](CCCNC(=N)N)NC(=O)CN)C(=O)O (H-GRKKRR-OH) | > 100 µM | 95.4% | 102% | 98.5% | 93.9% | –
– | CC[C@H](C)[C@H](NC(=O)[C@H](C)NC(=O)[C@@H](NC(=O)[C@H](Cc1ccc(O)cc1)NC(=O)[C@H](CC(N)=O)NC(=O)C(C)(C)NC(=O)[C@H](Cc1ccc(O)cc1)NC(=O)[C@@H](N)CCC(=O)O)[C@@H](C)O)C(=O)N[C@@H](C)C(=O)N[C@@H](Cc1c[nH]c2ccccc12)C(=O)N[C@H](C(=O)N[C@@H](CCCCN)C(=O)N[C@@H](C)C(=O)N[C@@H](Cc1ccccc1)C(=O)N[C@H](C(=O)N[C@@H](CCCNC(=N)N)C(=O)N[C@@H](CCCCN)C(=O)N[C@@H](CC(C)C)C(=O)N[C@@H](CCCNC(=N)N)C(=O)N[C@@H](CCCCN)C(=O)O)[C@@H](C)CC)C(C)C (H-EY[Aib]NYTAIAWVKAFIRKLRK-OH) | 67.1 µM | 19.3% | 40.5% | 80.4% | 95.4% | 87 µM
– | CC[C@H](C)[C@H](NC(=O)[C@H](C)NC(=O)[C@@H](NC(=O)[C@H](Cc1ccc(O)cc1)NC(=O)[C@H](CC(N)=O)NC(=O)C(C)(C)NC(=O)[C@H](Cc1ccc(O)cc1)NC(=O)[C@H](CCC(=O)O)NC(=O)OCC1c2ccccc2-c2ccccc21)[C@@H](C)O)C(=O)N[C@@H](C)C(=O)N[C@@H](Cc1c[nH]c2ccccc12)C(=O)N[C@H](C(=O)N[C@@H](CCCCN)C(=O)N[C@@H](C)C(=O)N[C@@H](Cc1ccccc1)C(=O)N[C@H](C(=O)N[C@@H](CCCNC(=N)N)C(=O)N[C@@H](CCCCN)C(=O)N[C@@H](CC(C)C)C(=O)N[C@@H](CCCNC(=N)N)C(=O)N[C@@H](CCCCN)C(=O)O)[C@@H](C)CC)C(C)C (Fmoc-EY[Aib]NYTAIAWVKAFIRKLRK-OH) | > 100 µM | 79.8% | 77.3% | 86.5% | 94.1% | –
– | CC(C)(NC(=O)[C@H](Cc1ccc(O)cc1)NC(=O)[C@@H](N)CCC(=O)O)C(=O)N[C@@H](CC(N)=O)C(=O)NCC(=O)N[C@@H](CCCNC(=N)N)C(=O)N[C@@H](CCCCN)C(=O)N[C@@H](CCCCN)C(=O)N[C@@H](CCCNC(=N)N)C(=O)N[C@@H](CCCNC(=N)N)C(=O)O (H-EY[Aib]NGRKKRR-OH) | > 100 µM | 93.1% | 91.5% | 99.4% | 90.7% | –
– | CC(C)(NC(=O)[C@H](Cc1ccc(O)cc1)NC(=O)[C@H](CCC(=O)O)NC(=O)[C@H](CCCNC(=N)N)NC(=O)[C@H](CCCNC(=N)N)NC(=O)[C@H](CCCCN)NC(=O)[C@H](CCCCN)NC(=O)[C@H](CCCNC(=N)N)NC(=O)CN)C(=O)N[C@@H](CC(N)=O)C(=O)O (H-GRKKRREY[Aib]N-OH) | > 100 µM | 82.1% | 83.2% | 91.6% | 90.9% | –
– | CC[C@H](C)[C@H](NC(=O)[C@H](C)NC(=O)[C@@H](N)Cc1ccc(O)cc1)C(=O)N[C@@H](C)C(=O)N[C@@H](Cc1c[nH]c2ccccc12)C(=O)N[C@H](C(=O)N[C@@H](CCCCN)C(=O)N[C@@H](C)C(=O)N[C@@H](Cc1ccccc1)C(=O)N[C@H](C(=O)N[C@@H](CCCNC(=N)N)C(=O)N[C@@H](CCCCN)C(=O)N[C@@H](CC(C)C)C(=O)N[C@@H](CCCNC(=N)N)C(=O)N[C@@H](CCCCN)C(=O)N[C@@H](CCC(=O)O)C(=O)N[C@@H](Cc1ccc(O)cc1)C(=O)NC(C)(C)C(=O)N[C@@H](CC(N)=O)C(=O)O)[C@@H](C)CC)C(C)C (H-YAIAWVKAFIRKLRKEY[Aib]N-OH) | > 100 µM | 59.9% | 64.5% | 74.4% | 83.8% | –
– | CC(C)(NC(=O)[C@H](Cc1ccc(O)cc1)NC(=O)[C@H](CCC(=O)O)NC(=O)OCC1c2ccccc2-c2ccccc21)C(=O)N[C@@H](CC(N)=O)C(=O)NCC(=O)N[C@@H](CCCNC(=N)N)C(=O)N[C@@H](CCCCN)C(=O)N[C@@H](CCCCN)C(=O)N[C@@H](CCCNC(=N)N)C(=O)N[C@@H](CCCNC(=N)N)C(=O)O (Fmoc-EY[Aib]NGRKKRR-OH) | > 100 µM | 85.3% | 90.9% | 91.6% | 84.2% | –
